What was measured:
D3R = D3R (Homo sapiens, UniProt P35462); experiment: cell membrane [3H]raclopride binding assay
Procedure: (§1) Flp-In-CHO cells stably expressing the wild-type or mutant DRs were grown to 90% confluence in 175 cm^2 cell culture flasks. The cells were harvested in PBS containing 2 mM EDTA and centrifuged at 300g for 3 min. The resulting pellet was resuspended in ice-cold assay buffer (20 mM HEPES, 100 mM NaCl, 6 mM MgCl2, 1 mM EGTA, and 1 mM EDTA, pH 7.4), and the centrifugation step was repeated. The intact cell pellet was then resuspended in assay buffer and homogenized using a Polytron homogenizer. After centrifugation (1000g, 10 min), the pellet was discarded, and the supernatant was recentrifuged at 30,000g for 1 h at 4 °C using a Sorvall Evolution RC ultracentrifuge (Thermo Scientific). The resulting pellet was resuspended in assay buffer and stored in 250 μL aliquots at −80 °C. Membrane protein concentration was determined using a Pierce’s BCA protein assay kit (Thermo Fisher, Melbourne).
(§2) [^3H]­Spiperone binding experiments using cell membranes were conducted in a 200 μL reaction volume in assay buffer (20 mM HEPES, 100 mM NaCl, 6 mM MgCl2, 1 mM EGTA, and 1 mM EDTA, pH 7.4) containing 100 μM GppNHp and 0.1% ascorbic acid in 96-well plates. […] In all cases, nonspecific binding was determined in the presence of 10 μM haloperidol. To obtain affinity estimates of unlabeled agonists, competition binding experiments were performed at equilibrium. […] After this incubation period, bound and free radioligands were separated by fast-flow filtration through UniFilter-96 GF/B plates using a MicroBeta FilterMate harvester (Revvity) followed by three washes with ice-cold 0.9% NaCl. Filter bound radioactivity was detected as a chemiluminescence after the addition of MicroScint-20 (Revvity) in a MicroBeta plate counter (Revvity).

D2LR [1] = target: T1, D2LR (Homo sapiens, UniProt P14416); experiment: ERK1/2 phosphorylation assay; type: cell-based; settings: pERK1/2
Procedure: Flp-In-CHO cells stably expressing the D2LR were seeded into 96-well plates at a density of 50,000 cells/well. After 5 h, cells were washed with phosphate-buffered saline (PBS) and incubated in serum-free DMEM overnight before assaying. […] Stimulation of the cells was terminated by removing the medium followed by the addition of 100 μL of SureFire lysis buffer (PerkinElmer) to each well. The plate was shaken for 5 min at RT before 5 μL of the lysates was transferred to a white 384-well ProxiPlate (PerkinElmer). Then, 8 μL of a 240:1440:7:7 mixture of Surefire activation buffer:Surefire reaction buffer:AlphaScreen acceptor beads:AlphaScreen donor beads was added to the samples and incubated in the dark at 37 °C for 1.5 h. Plates were read using a Fusion plate reader.

SNAP-D2SR D80^2.50A = SNAP-D2SR D80^2.50A (Homo sapiens, UniProt P14416, D80A); experiment: cell membrane [3H]spiperone assay
Procedure: as §1
(§3) [^3H]­Spiperone binding experiments using cell membranes were conducted in a 200 μL reaction volume in assay buffer (20 mM HEPES, 100 mM NaCl, 6 mM MgCl2, 1 mM EGTA, and 1 mM EDTA, pH 7.4) containing 100 μM GppNHp and 0.1% ascorbic acid in 96-well plates. […] In all cases, nonspecific binding was determined in the presence of 10 μM haloperidol. […] Filter bound radioactivity was detected as a chemiluminescence after the addition of MicroScint-20 (Revvity) in a MicroBeta plate counter (Revvity). […]

D2LR [2] = target: T1, D2LR; experiment: β-arrestin-2 recruitment BRET assay; type: cell-based
Procedure: Flp-In-CHO cells were seeded at a density of 2,000,000 cells per 10 cm dish and were transfected the following day using polyethylenimine as a transfection reagent. To assess β-arrestin-2 recruitment to the D2LR, the cells were transfected with 1 μg of Rluc8-tagged D2LR, 4 μg of YFP-β-arrestin-2, and 2 μg of GRK2. Twenty-four hours after transfection, the cells were plated into 96-well CulturPlates (PerkinElmer) and grown overnight. […] The cells were incubated with coelenterazine (Promega) at a final concentration of 5 μM for 5 min followed by stimulation with the agonists for an additional 5 min before the BRET readings were captured.

SNAP-D2SR T398^7.54A [3] = target: T2, SNAP-D2SR T398^7.54A (Homo sapiens, UniProt P14416, T427A); experiment: cell membrane [3H]spiperone assay
Procedure: as §1, §3

SNAP-D2SR T398^7.54A [4] = target: T2, SNAP-D2SR T398^7.54A; experiment: functional cAMP assay, BRET biosensor; type: cell-based; design: expressed in transfected cells
Procedure: (§4) Flp-In-CHO cells stably coexpressing the CAMYEL biosensor and DRs were plated into white 96-well CulturPlates (Revvity) and grown overnight. The cells were equilibrated in Hank’s balanced salt solution (HBSS) at 37 °C (or 25 °C when indicated) before starting the experiment. The cells were costimulated with the agonists and 10 μM forskolin for the indicated time frames when the BRET readings were captured. Coelenterazine (Nanolight Technology, AZ) was added at a final concentration of 5 μM at least 3 min prior to measurement. […] Net BRET was determined by subtraction of the vehicle control coadded with 10 μM forskolin.
(§5) Dose–response curves were fitted using the following three-parameter equation: response=bottom+top−bottom/1+10^(logEC50−log[A]) 5 where top and bottom represent the maximal and minimal asymptote of the dose response curve, [A] is the molar concentration of the agonist, and EC50 is the molar concentration of the agonist required to give a response half-way between bottom and top.

SNAP-D2SR L54^1.52A = SNAP-D2SR L54^1.52A (Homo sapiens, UniProt P14416, L54A); experiment: cell membrane [3H]spiperone assay
Procedure: as §1, §3

SNAP-D2SR L76^2.46A = SNAP-D2SR L76^2.46A (Homo sapiens, UniProt P14416, L76A); experiment: functional cAMP assay, BRET biosensor; type: cell-based
Procedure: as §4, §5

D2LR [5] = target: T1, D2LR; experiment: inhibition of forskolin-stimulated cAMP production, BRET biosensor; type: cell-based;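 further: Flp-In-CHO cells stably expressing CAMYEL cAMP BRET sensor, agonist plus 10 µM forskolin, net BRET after forskolin-vehicle subtraction, parameters from complete operational model of allosterism and agonism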
Procedure: as §4, §5

SNAP-D2SR E95^2.65A = SNAP-D2SR E95^2.65A (Homo sapiens, UniProt P14416, E95A); experiment: functional cAMP assay, BRET biosensor; type: cell-based
Procedure: Flp-In-CHO cells stably coexpressing the CAMYEL biosensor and DRs were plated into white 96-well CulturPlates (Revvity) and grown overnight. The cells were equilibrated in Hank’s balanced salt solution (HBSS) at 37 °C (or 25 °C when indicated) before starting the experiment. The cells were costimulated with the agonists and 10 μM forskolin for the indicated time frames when the BRET readings were captured. Coelenterazine (Nanolight Technology, AZ) was added at a final concentration of 5 μM at least 3 min prior to measurement. […] Net BRET was determined by subtraction of the vehicle control coadded with 10 μM forskolin. For phenoxybenzamine alkylation experiments, the cells were treated with 0.1, 0.3, or 1 μM phenoxybenzamine (Sigma-Aldrich) diluted in HBSS and equilibrated at 37 °C for 30 min prior to the commencement of the assay.
as §5

SNAP-D2SR WT = SNAP-D2SR WT (Homo sapiens, UniProt P14416); experiment: cell membrane [3H]spiperone assay
Procedure: as §1, §2
IC50 values obtained from the inhibition curves were converted to Ki values using the Cheng and Prusoff equation.

SNAP-D2SR I73^2.43A = SNAP-D2SR I73^2.43A (Homo sapiens, UniProt P14416, I73A); experiment: functional cAMP assay, BRET biosensor; type: cell-based; design: expressed in transfected cells
Procedure: as §4, §5

[6] = read-out: D2 PAM2 KB (converted)
[7] = with S-(3)-PPP, listed as D2 PAM

T1 sequence (P14416 whole entry, the tested form may be a part): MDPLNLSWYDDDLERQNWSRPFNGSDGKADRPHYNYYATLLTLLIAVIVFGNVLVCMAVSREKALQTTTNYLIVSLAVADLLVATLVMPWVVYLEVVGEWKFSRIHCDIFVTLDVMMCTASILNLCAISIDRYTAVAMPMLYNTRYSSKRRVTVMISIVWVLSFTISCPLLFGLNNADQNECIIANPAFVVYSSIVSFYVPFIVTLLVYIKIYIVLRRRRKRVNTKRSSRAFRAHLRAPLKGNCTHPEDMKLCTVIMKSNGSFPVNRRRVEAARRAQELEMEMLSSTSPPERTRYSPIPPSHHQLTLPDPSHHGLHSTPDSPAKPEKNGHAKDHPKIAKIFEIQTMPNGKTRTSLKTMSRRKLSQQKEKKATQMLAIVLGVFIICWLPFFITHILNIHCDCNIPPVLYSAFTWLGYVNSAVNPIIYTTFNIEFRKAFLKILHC
Sequence of SNAP-D2SR E95^2.65A (P14416 1-414 isoform P14416-2 E95A): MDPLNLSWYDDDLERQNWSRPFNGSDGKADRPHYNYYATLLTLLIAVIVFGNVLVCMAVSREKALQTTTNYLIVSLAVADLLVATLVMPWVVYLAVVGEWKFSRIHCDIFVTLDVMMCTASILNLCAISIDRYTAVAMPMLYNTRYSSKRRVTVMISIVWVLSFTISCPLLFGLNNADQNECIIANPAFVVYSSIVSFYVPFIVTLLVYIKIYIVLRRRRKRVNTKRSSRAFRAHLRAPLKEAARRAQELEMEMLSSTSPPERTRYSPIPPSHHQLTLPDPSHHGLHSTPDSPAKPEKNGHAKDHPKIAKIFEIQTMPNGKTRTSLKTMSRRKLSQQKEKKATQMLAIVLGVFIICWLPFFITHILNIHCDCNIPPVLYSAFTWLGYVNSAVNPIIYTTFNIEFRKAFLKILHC
Sequence of SNAP-D2SR I73^2.43A (P14416 1-414 isoform P14416-2 I73A): as the sequence (P14416 1-414 isoform P14416-2 E95A) above, with I73A, A95E counted along it
T2 sequence (P14416 1-414 isoform P14416-2 T398A): as the sequence (P14416 1-414 isoform P14416-2 E95A) above, with A95E, T398A counted along it
Sequence of D3R (P35462 whole entry): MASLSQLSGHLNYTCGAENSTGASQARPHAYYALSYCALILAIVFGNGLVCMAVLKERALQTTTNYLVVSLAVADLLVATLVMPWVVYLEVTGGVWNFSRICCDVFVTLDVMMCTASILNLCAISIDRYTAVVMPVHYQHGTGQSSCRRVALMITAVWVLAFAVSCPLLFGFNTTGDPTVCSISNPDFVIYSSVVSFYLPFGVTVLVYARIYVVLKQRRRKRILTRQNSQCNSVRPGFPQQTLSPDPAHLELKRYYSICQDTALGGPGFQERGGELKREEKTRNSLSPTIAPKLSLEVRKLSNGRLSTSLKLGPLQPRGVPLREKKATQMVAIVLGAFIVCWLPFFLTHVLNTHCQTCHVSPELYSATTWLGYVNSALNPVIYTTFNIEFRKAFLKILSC
Sequence of SNAP-D2SR WT (P14416 1-414 isoform P14416-2): as the sequence (P14416 1-414 isoform P14416-2 E95A) above, with A95E counted along it
Sequence of SNAP-D2SR L76^2.46A (P14416 1-414 isoform P14416-2 L76A): as the sequence (P14416 1-414 isoform P14416-2 E95A) above, with L76A, A95E counted along it
Sequence of SNAP-D2SR D80^2.50A (P14416 1-414 isoform P14416-2 D80A): as the sequence (P14416 1-414 isoform P14416-2 E95A) above, with D80A, A95E counted along it
Sequence of SNAP-D2SR L54^1.52A (P14416 1-414 isoform P14416-2 L54A): as the sequence (P14416 1-414 isoform P14416-2 E95A) above, with L54A, A95E counted along it

In the case of `COc1cc(CO)c(F)cc1C(=O)n1ccc2c(F)cccc21` [D2 PAM2, [5-fluoro-4-(hydroxymethyl)-2-methoxyphenyl]-(4-fluoro-1H-indol-1-yl)methanone], the Kb (D3R) is reported as 17 µM, the logα_DA (D3R) is reported as 0.98 ± 0.02 and the “logα_[3H]raclo” value (D3R) is reported as -0.14 ± 0.04. For the same compound, the pKB (D3R) was 4.77 ± 0.14, the α_DA (D3R) was 9.5 and the “α_[3H]raclo” value (D3R) was 0.72. For the same compound, the pKB (D2LR [1]) was 5.36 ± 0.13, the LogτB (D2LR [1]; intrinsic efficacy) was 0.18 ± 0.03 and the Logαβ (D2LR [1]; with dopamine) was 1.37 ± 0.12. For the same compound, the “fold shift + 10 μM PAM” value (SNAP-D2SR D80^2.50A; shift of DA IC50) was 0.9 fold, the “ΔpIC50 + 10 μM PAM” value (SNAP-D2SR D80^2.50A; shift of DA pIC50) was “–0.04 ± 0.27” and the pKB (D2LR [2]) was 5.18 ± 0.12. For the same compound, the LogτB (D2LR [2]; intrinsic efficacy) was -1.30 ± 0.16, the Logαβ (D2LR [2]; with dopamine) was 1.52 ± 0.12 and the “fold shift + 10 μM PAM” value (SNAP-D2SR T398^7.54A [3]; shift of DA IC50) was 1 fold. For the same compound, the “ΔpIC50 + 10 μM PAM” value (SNAP-D2SR T398^7.54A [3]; shift of DA pIC50) was “–0.01 ± 0.05”, the “D2 PAM2 log τ” value (SNAP-D2SR T398^7.54A [4]) was “–1.40 ± 0.22” and the “D2 PAM2 pKB” value (SNAP-D2SR T398^7.54A [4]) was 5.35 ± 0.17. The “D2 PAM2 τ” value (SNAP-D2SR T398^7.54A [4]) was 0.04, the “fold decrease in cooperativity with DA” value (SNAP-D2SR T398^7.54A [4]; cAMP) was 6 fold and the Kb (SNAP-D2SR T398^7.54A [4]; [6]) was 4 µM. The “D2 PAM2 log αβ” value (SNAP-D2SR T398^7.54A [4]; with DA) was 0.46 ± 0.05, the “D2 PAM2 αβ” value (SNAP-D2SR T398^7.54A [4]; with DA) was 2.9 and the “fold shift + 10 μM PAM” value (SNAP-D2SR L54^1.52A; shift of DA IC50) was 1.3 fold. For the same compound, the “ΔpIC50 + 10 μM PAM” value (SNAP-D2SR L54^1.52A; shift of DA pIC50) was 0.10 ± 0.11, the “D2 PAM2 log τ” value (SNAP-D2SR L76^2.46A) was “–3” and the “D2 PAM2 pKB” value (SNAP-D2SR L76^2.46A) was 5.52 ± 0.31. The “fold decrease in cooperativity between D2 PAM2 and DA” value (SNAP-D2SR L76^2.46A) was 5 fold, the Kb (SNAP-D2SR L76^2.46A; [6]) was 3 µM and the “D2 PAM2 log αβ” value (SNAP-D2SR L76^2.46A; with DA) was 0.56 ± 0.09. The “D2 PAM2 αβ” value (SNAP-D2SR L76^2.46A; with DA) was 3.6, the “agonism, fold lower than that of aripiprazole” value (D2LR [5]; D2 PAM2 alone, high D2R expression levels) was “approximately 2 fold” and the pKB (D2LR [5]; cAMP) was 5.37 ± 0.04. The LogτB (D2LR [5]; cAMP, intrinsic efficacy) was -0.96 ± 0.04, the Logαβ (D2LR [5]; cAMP, with dopamine) was 1.41 ± 0.04 and the Kb (D2LR [5]; operational model of allostery, with DA) was 5.5 µM. The Logαβ (D2LR [5]; with S-(3)-PPP) was 1.46 ± 0.16, the Logβ (D2LR [5]; with S-(3)-PPP) was 1.06 and the β (D2LR [5]; with S-(3)-PPP) was 11.5. For the same compound, the αβ (D2LR [5]; [7]) was 28, the β (D2LR [5]; [7]) was 11 and the Logαβ (D2LR [5]; with apomorphine) was 1.21 ± 0.13. For the same compound, the Logβ (D2LR [5]; with apomorphine) was 0.16, the αβ (D2LR [5]; with apomorphine) was 16 and the β (D2LR [5]; with apomorphine) was 1.4. It also gave a Logαβ (D2LR [5]; with aripiprazole) of 1.61 ± 0.14, a Logβ (D2LR [5]; with aripiprazole) of 1.18 and a αβ (D2LR [5]; with aripiprazole) of 41. It also gave a β (D2LR [5]; with aripiprazole) of 15, a Logαβ (D2LR [5]; with bromocriptine) of 0.76 ± 0.13 and a Logβ (D2LR [5]; with bromocriptine) of 0.49. The αβ (D2LR [5]; with bromocriptine) was 5.8, the β (D2LR [5]; with bromocriptine) was 3.1 and the Logαβ (D2LR [5]; with dopamine) was 1.35 ± 0.10. For the same compound, the Logβ (D2LR [5]; with dopamine) was 0.02, the αβ (D2LR [5]; with dopamine) was 22 and the β (D2LR [5]; with dopamine) was 1. For the same compound, the β (D2LR [5]; with dopamine, listed as D2 PAM) was 1.0, the Logαβ (D2LR [5]; with lisuride) was 0.66 ± 0.06 and the Logβ (D2LR [5]; with lisuride) was 0.11. For the same compound, the αβ (D2LR [5]; with lisuride) was 4.6, the β (D2LR [5]; with lisuride) was 1.3 and the Logαβ (D2LR [5]; with pergolide) was 1.50 ± 0.15. For the same compound, the Logβ (D2LR [5]; with pergolide) was 0.26, the αβ (D2LR [5]; with pergolide) was 32 and the β (D2LR [5]; with pergolide) was 1.8. It also gave a Logαβ (D2LR [5]; with pramipexole) of 1.37 ± 0.12, a Logβ (D2LR [5]; with pramipexole) of 0.16 and a αβ (D2LR [5]; with pramipexole) of 23. It also gave a β (D2LR [5]; with pramipexole) of 1.4, a Logαβ (D2LR [5]; with ropirinole) of 1.67 ± 0.12 and a Logβ (D2LR [5]; with ropirinole) of 0.53. The αβ (D2LR [5]; with ropirinole) was 47, the β (D2LR [5]; with ropirinole) was 3.4 and the Logαβ (D2LR [5]; with rotigotine) was 1.17 ± 0.09. The Logβ (D2LR [5]; with rotigotine) was -0.20, the αβ (D2LR [5]; with rotigotine) was 15 and the β (D2LR [5]; with rotigotine) was 0.6. For the same compound, the Kb (SNAP-D2SR E95^2.65A) was 3.2 µM, the Logτ (SNAP-D2SR E95^2.65A) was -0.46 ± 0.07 and the pKB (SNAP-D2SR E95^2.65A) was 5.49 ± 0.12. For the same compound, the τ (SNAP-D2SR E95^2.65A) was 0.35, the Logαβ (SNAP-D2SR E95^2.65A; with DA) was 1.07 ± 0.10 and the αβ (SNAP-D2SR E95^2.65A; with DA) was 11.7. For the same compound, the pKB (SNAP-D2SR WT; [3H]spiperone competition binding interaction experiment) was 5.04 ± 0.17, the Kb (SNAP-D2SR WT; binding interaction experiment) was 9 µM and the “log α” value (SNAP-D2SR WT; cooperativity with DA, binding) was 1.05 ± 0.10. The α (SNAP-D2SR WT; cooperativity with DA, binding) was 11, the “fold shift + 10 μM PAM” value (SNAP-D2SR WT; shift of DA IC50) was 9 fold and the “ΔpIC50 + 10 μM PAM” value (SNAP-D2SR WT; shift of DA pIC50) was 0.97 ± 0.20. The “D2 PAM2 log τ” value (SNAP-D2SR I73^2.43A) was “–1.11 ± 0.16”, the “D2 PAM2 pKB” value (SNAP-D2SR I73^2.43A) was 5.24 ± 0.16 and the “D2 PAM2 τ” value (SNAP-D2SR I73^2.43A) was 0.08. For the same compound, the “fold decrease in cooperativity with DA” value (SNAP-D2SR I73^2.43A; cAMP) was 2.8 fold, the Kb (SNAP-D2SR I73^2.43A; [6]) was 6 µM and the “D2 PAM2 log αβ” value (SNAP-D2SR I73^2.43A; with DA) was 0.79 ± 0.07. The “D2 PAM2 αβ” value (SNAP-D2SR I73^2.43A; with DA) was 6.1.
